Results on one compound are retold here after patent US8772302B2, “GPR 119 agonists” (Cadila Healthcare Limited, priority 2009, dated 2014).

SMILES strings stand for the structures. Read-outs that look alike come from different tables or passages of the source.

One test deals with Sprague Dawley rats. Briefly: Feed intake in Sprague Dawley rats. It counts as in vivo, rat. Conditions: Rattus norvegicus, oral, 50 mg/kg, cumulative feed intake vs vehicle. From the text:
In Vivo Efficacy Studies: Feed Intake in Sprague Dawley Rats:
Sprague Dawley rats of 6-8 week age are used for this experiment they are kept for acclimatization in reversed light/dark cycle for 15 days. Animals will have free access to a standard chow diet and water during acclimatization period. After 15 days reversed light/dark cycle acclimatization animals are trained for fasting induced feed intake for 5 days till they show consistent feed intake. Grouping was done based on the monitored feed intake during the training days. On treatment day each group of animals are dosed with test compound or vehicle by appropriate routes of administration (orally or intraperitoneally). Exactly 30 min. after treatment, measured amount of standard chow diet is provided and recorded as O-min feed offered. Then subsequently 2, 4, 6 and 24 hour after O-min, feed intake is measured and the cumulative feed intakes are calculated. The change in cumulative feed intake as compared to vehicle treated control at each time point is calculated for test compound.

Test [1] concerns the target T1, recombinant human GPR 119 receptor (Homo sapiens, UniProt Q8TDV5).
T1 construct: expressed in transfected cells
T1 sequence (Q8TDV5 1-335): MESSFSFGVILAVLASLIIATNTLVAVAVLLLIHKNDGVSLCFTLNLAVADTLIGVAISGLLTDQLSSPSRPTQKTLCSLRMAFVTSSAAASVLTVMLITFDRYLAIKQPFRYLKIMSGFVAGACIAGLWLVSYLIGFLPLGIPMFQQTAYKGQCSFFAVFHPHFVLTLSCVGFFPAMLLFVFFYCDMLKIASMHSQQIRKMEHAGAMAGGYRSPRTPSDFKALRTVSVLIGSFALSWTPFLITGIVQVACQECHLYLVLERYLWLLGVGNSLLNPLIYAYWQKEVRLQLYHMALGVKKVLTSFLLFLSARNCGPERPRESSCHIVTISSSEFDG
Briefly: cAMP assay in stable cell line expressing recombinant human GPR 119 receptor. It counts as cell-based. To be noted: intracellular cAMP. From the text: cAMP assay: A stable cell line expressing recombinant human GPR 119 receptor was established and used to investigate the efficacy of the compounds of the invention based on the intracellular levels of cyclic AMP (cAMP) using commercially available cAMP kits. Compounds of the invention produced a concentration dependent increase in cAMP level and EC50 values of representative compounds were provided in table 1.
In general terms: Cyclic AMP is a second messenger, typically raised through Gs and lowered through Gi signalling.

The subject of another test is C57/BL6 mice. Briefly: Oral glucose tolerance test (OGTT) in C57/BL6 mice. Type of test: in vivo, mouse. To be noted: Mus musculus, 2 h, serum glucose AUC, single oral dose, glucose load 3 gm/kg, read-out: % reduction in AUC at 50 mg/kg. The method, then: Oral Glucose Tolerance Tests (OGTT) in C57/BL6 Mice:
C57/BL6 mice of 6-8 week age are used for this experiment. Animals are grouped based on non-fasting serum glucose levels and kept on fasting for overnight (day before OGTT). On the experiment day, […], 30 min post dosing animals are bled for basal glucose level estimation and at the same time glucose load (3 gm/kg) will be administered per orally. Blood is collected at time points corresponding to 20, 40, 60 and 120 min after glucose load administration. Serum is separated for determination of glucose levels and change in area under curve for glucose is calculated and provided in table 4 as % reduction in AUC.

On to `Cc1c(Oc2ccc(C[C@H]3CO[S@](=O)OC3)cc2)ncnc1OC1CCN(C(=O)OCC(C)C)CC1` [Example 44, trans-isobutyl 4-((5-methyl-6-(4-((2-oxido-1,3,2-dioxathian-5-yl)methyl)phenoxy)pyrimidin-4-yl)oxy)piperidine-1-carboxylate], for which the inhibition in vivo at 50 mg/kg turned out to be 38% with Sprague Dawley rats (2 hour, read-out: % reduction in food in take, 2 hour); 30% in the test on Sprague Dawley rats (4 hour, read-out: % reduction in food in take, 4 hour); 24% with Sprague Dawley rats (6 hour, read-out: % reduction in food in take, 6 hour); 7% with Sprague Dawley rats (24 hour, read-out: % reduction in food in take, 24 hour); 31% in the test on C57/BL6 mice. For the same compound, the half-maximal effective concentration (EC50) (as a rule, the concentration at which the effect is half-maximal) in test [1] turned out to be 108 nM.
